Tests used:
Conditions in all cases: no ATP
FLT3 D835H = biological target: T1, FLT3 D835H (Homo sapiens, UniProt P36888, D835H); experiment: DiscoverX KINOMEscan competition binding, FLT3 D835H
T1 construct: purchased DiscoverX (KINOMEscan); host or cells: E. coli (T7 phage) or HEK-293
T1 sequence (P36888 27-993 D835H): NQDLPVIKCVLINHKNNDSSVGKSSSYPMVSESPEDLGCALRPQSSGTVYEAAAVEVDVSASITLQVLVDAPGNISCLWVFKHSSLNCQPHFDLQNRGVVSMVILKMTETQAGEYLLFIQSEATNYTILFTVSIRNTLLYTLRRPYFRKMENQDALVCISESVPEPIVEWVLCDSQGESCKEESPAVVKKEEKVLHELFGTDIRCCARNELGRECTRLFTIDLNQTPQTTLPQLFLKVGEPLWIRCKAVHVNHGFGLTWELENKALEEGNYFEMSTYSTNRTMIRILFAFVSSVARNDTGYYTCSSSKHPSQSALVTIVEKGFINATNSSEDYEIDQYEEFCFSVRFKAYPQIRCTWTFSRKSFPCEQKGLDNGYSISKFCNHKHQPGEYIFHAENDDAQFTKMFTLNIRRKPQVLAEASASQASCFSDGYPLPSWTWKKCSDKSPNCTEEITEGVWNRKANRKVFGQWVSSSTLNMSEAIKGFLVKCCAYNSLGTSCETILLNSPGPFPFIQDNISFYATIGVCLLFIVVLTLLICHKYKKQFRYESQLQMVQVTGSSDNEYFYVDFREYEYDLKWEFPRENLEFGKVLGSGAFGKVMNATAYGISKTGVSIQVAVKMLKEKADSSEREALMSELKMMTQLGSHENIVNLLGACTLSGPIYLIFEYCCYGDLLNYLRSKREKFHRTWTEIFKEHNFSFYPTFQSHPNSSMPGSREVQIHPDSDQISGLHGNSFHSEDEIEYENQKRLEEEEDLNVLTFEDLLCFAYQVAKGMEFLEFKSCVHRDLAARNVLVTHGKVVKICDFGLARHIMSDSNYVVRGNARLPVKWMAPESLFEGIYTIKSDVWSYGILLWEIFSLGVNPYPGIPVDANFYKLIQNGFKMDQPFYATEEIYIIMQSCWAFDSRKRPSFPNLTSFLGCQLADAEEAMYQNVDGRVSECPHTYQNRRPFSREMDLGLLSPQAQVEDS
Source text: (§1) Kinase binding data were obtained for various exemplary compounds prepared according to Examples 2-15 using the DiscoverX KINOMEscan® active site-directed competition binding site-directed assay protocol described below. […] As a result, the data report thermodynamic interaction affinities (Kd values), rather than IC50 values that are dependent on ATP concentrations. The assay uses a DNA-tagged version of the protein kinase, and an immobilized ligand bound to a solid support. Compounds that directly or indirectly prevent kinase binding to the immobilized ligand reduce the amount of kinase captured on the solid support, which is detected using an ultra-sensitive qPCR method. Affinity constants reported from the assay have been reported to be independent of the immobilized ligand used that is coupled to the solid support (See supplemental information in Fabian, M. A. et. al., (2005) Nat. […] Wodicka, L. […] Biol. 17, 1241-1249.) Kinase-tagged T7 phage strains were prepared in an E. coli host derived from the BL21 strain. E. coli were grown to log-phase and infected with T7 phage and incubated with shaking at 32° C. until lysis. […] Kds were determined using an 11-point 3-fold compound dilution series with three DMSO control points. […] The kinase concentration in the eluates was measured by qPCR. Binding constants (Kds) were calculated with a standard dose-response curve using the Hill equation. […]

FLT3 Autoinh. = biological target: T2, FLT3 Autoinh. (Homo sapiens, UniProt P36888); experiment: DiscoverX KINOMEscan competition binding, FLT3 Autoinh.
T2 construct: purchased DiscoverX (KINOMEscan); host or cells: E. coli (T7 phage) or HEK-293
T2 sequence (P36888 564-993 limits assumed): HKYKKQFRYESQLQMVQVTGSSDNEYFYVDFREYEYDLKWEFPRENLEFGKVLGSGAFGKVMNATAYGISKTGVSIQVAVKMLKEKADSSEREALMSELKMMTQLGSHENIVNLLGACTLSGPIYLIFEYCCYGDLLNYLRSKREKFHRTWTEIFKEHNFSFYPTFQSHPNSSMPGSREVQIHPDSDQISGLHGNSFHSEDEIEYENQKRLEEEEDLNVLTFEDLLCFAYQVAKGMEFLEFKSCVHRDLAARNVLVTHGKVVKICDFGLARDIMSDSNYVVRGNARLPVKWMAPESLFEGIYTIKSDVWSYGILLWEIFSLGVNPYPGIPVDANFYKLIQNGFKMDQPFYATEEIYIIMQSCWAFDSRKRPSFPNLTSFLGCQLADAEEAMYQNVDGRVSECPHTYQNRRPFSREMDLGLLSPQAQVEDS
Source text: as §1

IRAK4 = biological target: T3, IRAK4 (Homo sapiens, UniProt Q9NWZ3); experiment: DiscoverX KINOMEscan competition binding, IRAK4; set-up: purchased RBC (Reaction Biology) HotSpot assay
T3 sequence (Q9NWZ3 1-460): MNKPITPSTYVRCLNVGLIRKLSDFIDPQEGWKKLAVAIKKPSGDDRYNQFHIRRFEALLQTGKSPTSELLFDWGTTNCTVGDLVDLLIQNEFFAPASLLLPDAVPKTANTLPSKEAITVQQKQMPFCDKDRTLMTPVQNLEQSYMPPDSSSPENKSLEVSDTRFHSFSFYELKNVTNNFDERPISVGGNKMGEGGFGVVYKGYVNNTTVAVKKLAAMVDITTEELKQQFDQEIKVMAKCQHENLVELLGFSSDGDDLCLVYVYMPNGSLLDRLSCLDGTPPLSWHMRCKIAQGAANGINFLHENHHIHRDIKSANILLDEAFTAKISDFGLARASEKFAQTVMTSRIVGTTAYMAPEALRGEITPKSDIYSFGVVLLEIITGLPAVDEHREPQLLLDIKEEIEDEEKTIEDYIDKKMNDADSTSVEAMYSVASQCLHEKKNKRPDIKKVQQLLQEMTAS
Source text: as §1

Q: What does the source list for `COc1cc2ncc(-c3nc(N[C@H]4CNCC[C@@H]4F)c(F)cc3F)n2nc1C1CCC1` [Compound 15a, 6-(6-cyclobutyl-7-methoxyimidazo[1,2-b]pyridazin-3-yl)-3,5-difluoro-N-((3S,4S)-4-fluoropiperidin-3-yl)pyridin-2-amine]?
A: Kd (FLT3 D835H): < 0.17 nM; Kd (FLT3 Autoinh.): 5.8 nM; Kd (IRAK4): 0.32 nM

— patent publication US20250368648A1, “MULTI-CYCLIC IRAK AND FLT3 INHIBITING COMPOUNDS AND USES THEREOF” (CHILDREN'S HOSPITAL MEDICAL CENTER, priority 2022, published 2025)
